Consider two compounds from US20150305328A1, “METHODS OF SAFENING SUGAR CANE PLANTS WITH N-ACYLSULFAMOYLPHENYLUREAS” (SYNGENTA PARTICIPATIONS AG, priority 2012, published 2015).

In this data set the test system is sugar cane varieties SP803280 and RB835486. The data set can be described thus: Glasshouse safening test: visual phytotoxicity of pre-emergent herbicides on sugar cane grown from safener-soaked single-node stem sections. Format: in vivo. On the procedure: In the following examples, two commercial and contemporary Brazilian sugar cane varieties were used in the experiential testing, SP803280 and RB835486. The sugar cane propagation material was prepared using single-node stem sections approximately 8 cm in length. The stem sections were treated by soaking for about 10 seconds in a solution containing Formula A=1-[4-(N-2-methoxybenzoylsulfamoyl)phenyl]-3-methylurea (15 ml of formulated product in 500 ml water; the formulated product contained 100 grams of Formula A per liter of formulated product). Four stem segments (replicates) were planted in and covered with 1 cm of the regular live loam soil used in glasshouse screening using standard planting troughs, putting each variety in a separate trough. Seeds of one of two appropriate weeds, Euphorbia heterophylla or Brachiaria decumbens were also planted in each trough in a clump to give a measure of relative weeds control alongside crop phytotoxicity. Plants were assessed for percentage visual phytotoxicity at 7 day intervals after application (DAA) up to 35 DAA. Three herbicides, all having different modes-of-action were applied the day after planting as pre-emergent herbicide. The herbicides applied were: clomazone (Gamit®) having a DOXP mode-of-action (inhibition of the 1-desoxy-D-xylulose 5-phosphate), sufentrazone (Boral®) having a PPO mode-of-action (inhibition of protoporphyrinogen oxidase), and bicyclopyrone having an HPPD mode-of-action (inhibition of the enzyme 4-hydoxyphenylpyruvate dioxygenase). Application of each herbicide was applied at 600, 1200, 1600, and 2000 grams per hectare equivalents. Results: Shown in FIGS. 1-12 (DAA—Herbicide—Sugar Cane Variety)

In the case of `CNC(=O)Nc1ccc(S(=O)(=O)NC(=O)c2ccccc2OC)cc1` [Formula A, 1-[4-(N-2-methoxybenzoylsulfamoyl)phenyl]-3-methylurea], the safening of sulfentrazone result (both varieties of sugar cane, stem sections soaked in Formula A) is recorded as “very effectively”. The “phytotoxicity level with sulfentrazone after Formula A treatment” value (percentage visual phytotoxicity, reduced from 80%, in certain instances) is “zero”. For the same compound, the safening of bicyclopyrone entry (stem sections soaked in Formula A, bicyclopyrone applied pre-emergent) is “strong safening”. The safening of clomazone result (stem sections soaked in Formula A, clomazone applied pre-emergent) is “strong safening”. Further, where the note is “with all three herbicides (clomazone, sulfentrazone, bicyclopyrone), applied pre-emergent at 600-2000 g/ha, FIGS. 1-12, 28 and 35 DAA”, the “safening effect as sugar cane propagation material applied safener” value was “clear safening effect”.

Consider `Cc1nn(-c2cc(NS(C)(=O)=O)c(Cl)cc2Cl)c(=O)n1C(F)F` [sulfentrazone, reference compound], for which the “phytotoxicity level of sulfentrazone without Formula A safening” value (sugar cane, in vivo) amounted to 80%.
